Measured values from publication PMC10216581, “Homogeneous, Synthetic, Non-Saccharide Glycosaminoglycan Mimetics as Potent Inhibitors of Human Cathepsin G” (Biomolecules, 2023).
Entries after “also recorded” stand apart in the source; their conditions may differ. Marks after values point to notes of the source that are not given here.

What was measured:
factor XIIa = tested on: factor XIIa; design: method as in PMID 9790687; conditions: previous study; read-out: inhibitory potency; cited from earlier work
factor IXa = tested on: factor IXa; design: method as in PMID 9790687; conditions: previous study; read-out: inhibitory potency; cited from earlier work
human plasmin = tested on: human plasmin; design: method as in PMID 9790687; conditions: previous studies; cited from earlier work
human plasma = assay: Activated partial thromboplastin time (aPTT) clotting assay; assay type: biochemical
Procedure: The impacts of NSGM 25 on activated partial thromboplastin time (aPTT) and the prothrombin time (PT) of human plasma were measured employing a standard one-stage recalcification assay at 37 °C, as previously reported. CaCl2 and thromboplastin-D were used to initiate clotting in aPTT and PT assays, respectively, in the absence and presence of NSGM 25, and the time to clot was recorded accordingly.

Human CatG = biological target: T1, Human CatG (Homo sapiens, UniProt P08311); assay: Salt dependence of CatG inhibition by NSGM 25 (ionic/nonionic binding energy); assay type: biochemical
T1 construct: purchased Elastin Products Company (Owensville, MO, USA)
T1 sequence (P08311 21-255): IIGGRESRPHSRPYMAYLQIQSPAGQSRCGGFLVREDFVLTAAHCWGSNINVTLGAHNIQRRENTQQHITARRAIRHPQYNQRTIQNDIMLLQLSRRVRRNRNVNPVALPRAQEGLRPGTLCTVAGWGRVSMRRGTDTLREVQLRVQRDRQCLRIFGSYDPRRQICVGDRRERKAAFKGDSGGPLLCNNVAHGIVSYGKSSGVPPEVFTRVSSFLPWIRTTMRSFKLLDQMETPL
Procedure: Each KI value was calculated from the corresponding IC50 using the Cheng–Prusoff equation [43]. A double-log plot of the KI against Na^+ concentration was prepared and analyzed using the equation log KI=log KI,NONIONIC+ZψlogNa^+ . Here, the slope corresponds to the number of ion-pair interactions (Z) and the counterions released per negative charge upon ion binding (ψ = 0.8), while the intercept corresponds to the nonionic affinity (KI,NONIONIC). The contributions of ionic and nonionic binding energies to the interactions were obtained from the slope and intercept of the plot in Excel.
A fundamental point being advanced in NSGM-based mimicry is the presumed increase in hydrophobic forces contributing to binding affinity. As is well-recognized, heparin and other GAGs utilize primarily electrostatic forces in binding to proteins. […] The resolution of overall binding energy into ionic and nonionic contributions is typically achieved by performing affinity measurements as a function of the ionic strength of the buffer. According to the protein–polyelectrolyte theory, the two contributions can be resolved from a double-log plot of binding affinity against the Na^+ concentration, as defined by the equation log KI = log KI,NONIONIC + Zψ × log [Na^+], where Z represents the number of salt interactions, and ψ is the proportion of Na^+ released per anion upon ligand binding and is equal to 0.8 for heparin [55].
Figure 6 Salt dependence of CatG inhibition by NSGM 25. (A) Salt-dependent direct inhibition of CatG by NSGM 25. Data were obtained using substrate S-7388 in a chromogenic substrate hydrolysis assay. Solid lines represent sigmoidal dose–response analysis (Equation (1)) of the data to obtain IC50, ΔY%, and HS. Errors represent ± 1 S.E. (B) A double-log plot of the KI calculated using Cheng–Rusoff equation for uncompetitive inhibition against the concentration of salt.
The measured IC50s of our allosteric inhibitors are distinct from inhibition constants KI, which are thermodynamic constants. Cheng and Prusoff provided a mathematical foundation for the transformation of IC50s into KIs for uncompetitive inhibitors. In their formulation, KI is equal to IC50 × [S]/(KM + [S]), which is directly applicable to our study. Thus, it becomes possible to utilize the linear double-log analysis described above for our NSGM 25, which is an uncompetitive inhibitor. […] Linear regression yielded a slope of 2.94 and an intercept of −4.32 (Table 5). Whereas the former corresponds to an ionic binding energy of […] at 37 °C and 100 mM salt, the latter yields a nonionic binding energy of 6.12 kcal/mol. […] Such important roles of two forces have not been observed earlier. More importantly, the higher nonionic component bodes well for the discovery of second-generation inhibitors with higher selectivity.

[1] = tested on: human neutrophil elastase (HNE); design: method as in PMID 23735578; conditions: previous studies; cited from earlier work
[2] = linear regression of log KI versus log[Na+]

HS (Human CatG; 50 mM NaCl): 1.3 ± 0.4 | IC50 (Human CatG; 50 mM NaCl): 43 ± 10 nM | ΔY (Human CatG; 50 mM NaCl): 87.7 ± 7.3 ^b % | IC50 (Human CatG; 50 mM NaCl, pH 7.4, 37 °C): 42.7 ± 10 nM | Ki (Human CatG; 50 mM NaCl, calculated from IC50 with Cheng-Prusoff equation (uncompetitive)): 10.9 ± 3.9 nM | HS (Human CatG; 100 mM NaCl): 0.7 ± 0.1 | IC50 (Human CatG; 100 mM NaCl, pH 7.4, 37 °C): 52.6 ± 12.2 nM | Ki (Human CatG; 100 mM NaCl, calculated from IC50 with Cheng-Prusoff equation): 19.2 ± 5.3 nM | HS (Human CatG; 150 mM NaCl): 1.6 ± 0.3 | ΔY (Human CatG; 150 mM NaCl): 74.4 ± 2.9% | IC50 (Human CatG; 150 mM NaCl, pH 7.4, 37 °C): 319 ± 44.5 nM | Ki (Human CatG; 150 mM NaCl, calculated from IC50 with Cheng-Prusoff equation): 148 ± 54 nM | HS (Human CatG; 200 mM NaCl): 2.0 ± 0.5 | ΔY (Human CatG; 200 mM NaCl): 73.2 ± 4.9% | IC50 (Human CatG; 200 mM NaCl, pH 7.4, 37 °C): 3450 ± 517 nM | Ki (Human CatG; 200 mM NaCl, calculated from IC50 with Cheng-Prusoff equation): 1670 ± 480 nM | ionic binding energy (Human CatG; 37 °C and 100 mM salt): 4.88 kcal/mol | loss in inhibition potency (Human CatG; NaCl increased from 50 mM to 200 mM): ~ 80 fold | ΔGNON-IONIC (nonionic binding energy) (Human CatG; from intercept of double-log plot): 6.12 kcal/mol | Intercept (Human CatG; [2]): −4.32 | Slope (Human CatG; [2]): 2.94 | ΔGIONIC (Human CatG; share of binding energy): 44.4% | ΔGNON-IONIC (Human CatG; share of binding energy): 55.6%
Compound: O=c1c(OS(=O)(=O)O)c(-c2ccc(OS(=O)(=O)O)c(OS(=O)(=O)O)c2)oc2cc(OS(=O)(=O)O)cc(OCc3ccc(COc4cc(OS(=O)(=O)O)cc5oc(-c6ccc(OS(=O)(=O)O)c(OS(=O)(=O)O)c6)c(OS(=O)(=O)O)c(=O)c45)cc3)c12 [NSGM 25]
IC50 (factor XIIa): > 150000 nM | IC50 (factor IXa): > 150000 nM | IC50 (human plasmin): ~6300 nM | aPTT (EC2X) (human plasma; concentration required to double the aPTT of pooled human plasma): >1000 µM | effect on aPTT clotting time (human plasma; human plasma, concentration as high as 1 mM): did not impact; also recorded: did not extend | IC50 [1]: ~230 nM
